Reference: ChEMBL document CHEMBL5550122, “Photodynamic anticancer activity evaluation of novel 5-aminolevulinic acid and 3-hydroxypyridinone conjugates” (Bioorg Med Chem, 2024)
Calls of active or inactive are those of the source. No cut-off for these calls is given here.

Legend:
[1] = Drug metabolism assessed as esterase (unknown origin) mediated hydrolysis by measuring 5-Aminolevulinic acid formation; assay type: ADME; details: human
A-375 [2] = assay: Cytotoxicity against human A-375 cells assessed as reduction in cell viability preincubated for 4 hrs under dark condition followed by irradiation with blue light at 2.5 J.cm^-2 energy level for 5 mins and measured after 18 hrs by MTT assay; assay type: functional, cell-based; details: A-375, light or radiation study
[3] = Drug metabolism assessed as esterase (unknown origin) mediated hydrolysis by measuring hydroxypyridinone formation; assay type: ADME; details: human
MCF7 [4] = assay: Cytotoxicity against human MCF7 cells assessed as reduction in cell viability preincubated for 4 hrs under dark condition followed by irradiation with blue light at 2.5 J.cm^-2 energy level for 5 mins and measured after 18 hrs by MTT assay; assay type: functional, cell-based; details: MCF7, light or radiation study
MCF7 [5] = assay: Cytotoxicity against human MCF7 cells assessed as reduction in cell viability at 100 uM incubated for 4 hrs under dark condition by MTT assay; assay type: functional, cell-based
HeLa [6] = assay: Cytotoxicity against human HeLa cells assessed as reduction in cell viability preincubated for 4 hrs under dark condition followed by irradiation with blue light at 2.5 J.cm^-2 energy level for 5 mins and measured after 18 hrs by MTT assay; assay type: functional, cell-based; details: light or radiation study
A-375 [7] = assay: Cytotoxicity against human A-375 cells assessed as reduction in cell viability at 100 uM incubated for 4 hrs under dark condition by MTT assay; assay type: functional, cell-based
[8] = Prodrug release in human MCF7 cells assessed as 3-[(1Z,4Z,9Z,15Z)-7-(2-carboxyethyl)-3,8,12,17-tetramethyl-13,18-divinyl-21,23-dihydroporphyrin-2-yl]propanoic acid release by measuring increase in fluorescence intensity at 20 to 80 uM by microplate reader analysis; assay type: ADME, cell-based; details: mcf7, 80 µM, dose 20-80 µM
[9] = Prodrug release in human Hela cells assessed as 3-[(1Z,4Z,9Z,15Z)-7-(2-carboxyethyl)-3,8,12,17-tetramethyl-13,18-divinyl-21,23-dihydroporphyrin-2-yl]propanoic acid release by measuring increase in fluorescence intensity at 20 to 80 uM by microplate reader analysis; assay type: ADME, cell-based; details: dose 20-80 µM
HeLa [10] = assay: Cytotoxicity against human HeLa cells assessed as reduction in cell viability at 100 uM incubated for 4 hrs under dark condition by MTT assay; assay type: functional, cell-based
[11] = Prodrug release in human A-375 cells assessed as 3-[(1Z,4Z,9Z,15Z)-7-(2-carboxyethyl)-3,8,12,17-tetramethyl-13,18-divinyl-21,23-dihydroporphyrin-2-yl]propanoic acid release by measuring increase in fluorescence intensity at 20 to 80 uM by microplate reader analysis; assay type: ADME, cell-based; details: a-375, 80 µM, dose 20-80 µM
A-375 [12] = assay: Cytotoxicity against human A-375 cells assessed as reduction in cell viability at 100 to 400 uM preincubated for 4 hrs under dark condition followed by irradiation with blue light at 5 J.cm^-2 energy level and measured after 18 hrs by MTT assay; assay type: functional, cell-based; details: dose 100-400 µM, time 22.0 hrs
HeLa [13] = assay: Cytotoxicity against human HeLa cells assessed as reduction in cell viability at 100 to 400 uM incubated for 4 hrs under dark condition by MTT assay; assay type: functional, cell-based; details: dose 100-400 µM
MCF7 [14] = assay: Cytotoxicity against human MCF7 cells assessed as reduction in cell viability at 100 to 400 uM incubated for 4 hrs under dark condition by MTT assay; assay type: functional, cell-based; details: dose 100-400 µM
MCF7 [15] = assay: Cytotoxicity against human MCF7 cells assessed as reduction in cell viability at 100 to 400 uM preincubated for 4 hrs under dark condition followed by irradiation with blue light at 5 J.cm^-2 energy level and measured after 18 hrs by MTT assay; assay type: functional, cell-based; details: dose 100-400 µM, time 22.0 hrs
HeLa [16] = assay: Cytotoxicity against human HeLa cells assessed as reduction in cell viability at 100 to 400 uM preincubated for 4 hrs under dark condition followed by irradiation with blue light at 5 J.cm^-2 energy level and measured after 18 hrs by MTT assay; assay type: functional, cell-based; details: dose 100-400 µM, time 22.0 hrs
A-375 [17] = assay: Cytotoxicity against human A-375 cells assessed as reduction in cell viability at 100 to 400 uM incubated for 4 hrs under dark condition by MTT assay; assay type: functional, cell-based; details: dose 100-400 µM
A-375 [18] = assay: Cytotoxicity against human A-375 cells assessed as reduction in cell viability preincubated for 4 hrs under dark condition in presence of 5-aminolevulinic acid followed by irradiation with blue light at 2.5 J.cm^-2 energy level for 5 mins and measured after 18 hrs by MTT assay; assay type: functional, cell-based; details: A-375, light or radiation study
HeLa [19] = assay: Cytotoxicity against human HeLa cells assessed as reduction in cell viability preincubated for 4 hrs under dark condition in presence of 5-aminolevulinic acid followed by irradiation with blue light at 2.5 J.cm^-2 energy level for 5 mins and measured after 18 hrs by MTT assay; assay type: functional, cell-based; details: light or radiation study
MCF7 [20] = assay: Cytotoxicity against human MCF7 cells assessed as reduction in cell viability preincubated for 4 hrs under dark condition in presence of 5-aminolevulinic acid followed by irradiation with blue light at 2.5 J.cm^-2 energy level for 5 mins and measured after 18 hrs by MTT assay; assay type: functional, cell-based; details: MCF7, light or radiation study
HeLa [21] = assay: Cytotoxicity against human HeLa cells assessed as reduction in cell viability preincubated for 4 hrs under dark condition in presence of deferiprone followed by irradiation with blue light at 2.5 J.cm^-2 energy level for 5 mins and measured after 18 hrs by MTT assay; assay type: functional, cell-based; details: light or radiation study
A-375 [22] = assay: Cytotoxicity against human A-375 cells assessed as reduction in cell viability preincubated for 4 hrs under dark condition in presence of deferiprone followed by irradiation with blue light at 2.5 J.cm^-2 energy level for 5 mins and measured after 18 hrs by MTT assay; assay type: functional, cell-based; details: A-375, light or radiation study
MCF7 [23] = assay: Cytotoxicity against human MCF7 cells assessed as reduction in cell viability preincubated for 4 hrs under dark condition in presence of deferiprone followed by irradiation with blue light at 2.5 J.cm^-2 energy level for 5 mins and measured after 18 hrs by MTT assay; assay type: functional, cell-based; details: MCF7, light or radiation study

Compound	IC50 (A-375 [2]) [µM]	IC50 (MCF7 [4]) [µM]	IC50 (HeLa [6]) [µM]	Activity (A-375 [12])	Activity (HeLa [13])	Activity (MCF7 [14])	Activity (MCF7 [15])	Activity (HeLa [16])	Activity (A-375 [17])	other results
CCCCn1c(C)cc(=O)c(O)c1COC(=O)CCC(=O)CN.Cl	41.7	38	68.8	–	–	–	–	–	–	Drug metabolism [1]: Metabolite_Detected; Drug metabolism [3]: Metabolite_Detected; Activity (MCF7 [5]): inactive; Activity (A-375 [7]): inactive; Drug metabolism [8]: Metabolite_Detected; Drug metabolism [9]: Metabolite_Detected; Activity (HeLa [10]): inactive; Drug metabolism [11]: Metabolite_Detected
COC(=O)CCC(=O)CNC(=O)[C@H](Cc1ccccc1)NC(=O)Cn1ccc(=O)c(O)c1C	–	–	–	inactive	inactive	inactive	inactive	inactive	inactive	–
COC(=O)CCC(=O)CNC(=O)[C@H](Cc1ccccc1)NC(=O)Cn1cc(O)c(=O)cc1C	–	–	–	inactive	inactive	inactive	inactive	inactive	inactive	–
CCOCCCn1c(C)cc(=O)c(O)c1COC(=O)CCC(=O)CN.Cl	52.2	64.7	43.9	–	–	–	–	–	–	Drug metabolism [1]: Metabolite_Detected; Drug metabolism [3]: Metabolite_Detected; Activity (MCF7 [5]): inactive; Activity (A-375 [7]): inactive; Drug metabolism [8]: Metabolite_Detected; Drug metabolism [9]: Metabolite_Detected; Activity (HeLa [10]): inactive; Drug metabolism [11]: Metabolite_Detected
COC(=O)CCC(=O)CNC(=O)CCCn1cc(O)c(=O)cc1C	–	–	–	inactive	inactive	inactive	inactive	inactive	inactive	–
COC(=O)CCC(=O)CNC(=O)CCCn1cc(O)c(=O)cc1CO	–	–	–	inactive	inactive	inactive	inactive	inactive	inactive	–
COC(=O)CCC(=O)CNC(=O)[C@H](CC(C)C)NC(=O)Cn1ccc(=O)c(O)c1C	–	–	–	inactive	inactive	inactive	inactive	inactive	inactive	–
COC(=O)CCC(=O)CNC(=O)CCCCCn1cc(O)c(=O)cc1CO	–	–	–	inactive	inactive	inactive	inactive	inactive	inactive	–
Cc1c(O)c(=O)ccn1C [DEFERIPRONE]	–	–	–	–	–	–	–	–	–	IC50 (A-375 [18]): 27.2 µM; IC50 (HeLa [19]): 61.8 µM; IC50 (MCF7 [20]): 65 µM
COC(=O)CCC(=O)CNC(=O)CCn1cc(O)c(=O)cc1C	–	–	–	inactive	inactive	inactive	inactive	inactive	inactive	–
CCCCCn1c(C)cc(=O)c(O)c1COC(=O)CCC(=O)CN.Cl	46.4	45.8	47.5	–	–	–	–	–	–	Drug metabolism [1]: Metabolite_Detected; Drug metabolism [3]: Metabolite_Detected; Activity (MCF7 [5]): inactive; Activity (A-375 [7]): inactive; Drug metabolism [8]: Metabolite_Detected; Drug metabolism [9]: Metabolite_Detected; Activity (HeLa [10]): inactive; Drug metabolism [11]: Metabolite_Detected
NCC(=O)CCC(=O)O [AMINOLEVULINIC ACID]	> 100	> 100	> 100	–	–	–	–	–	–	IC50 (HeLa [21]): 61.8 µM; IC50 (A-375 [22]): 27.2 µM; IC50 (MCF7 [23]): 65 µM
COC(=O)CCC(=O)CNC(=O)CCCCn1cc(O)c(=O)cc1C	–	–	–	inactive	inactive	inactive	inactive	inactive	inactive	–
COCCCn1c(C)cc(=O)c(O)c1COC(=O)CCC(=O)CN.Cl	50.6	57.2	65.7	–	–	–	–	–	–	Drug metabolism [1]: Metabolite_Detected; Drug metabolism [3]: Metabolite_Detected; Activity (MCF7 [5]): inactive; Activity (A-375 [7]): inactive; Drug metabolism [8]: Metabolite_Detected; Drug metabolism [9]: Metabolite_Detected; Activity (HeLa [10]): inactive; Drug metabolism [11]: Metabolite_Detected
Cc1cc(=O)c(O)c(COC(=O)CCC(=O)CN)n1CCc1ccccc1.Cl	47.3	67.7	30	–	–	–	–	–	–	Drug metabolism [1]: Metabolite_Detected; Drug metabolism [3]: Metabolite_Detected; Activity (MCF7 [5]): inactive; Activity (A-375 [7]): inactive; Drug metabolism [8]: Metabolite_Detected; Drug metabolism [9]: Metabolite_Detected; Activity (HeLa [10]): inactive; Drug metabolism [11]: Metabolite_Detected
COC(=O)CCC(=O)CNC(=O)CCCCCn1cc(O)c(=O)cc1C	–	–	–	inactive	inactive	inactive	inactive	inactive	inactive	–
COC(=O)CCC(=O)CNC(=O)Cn1cc(O)c(=O)cc1CO	–	–	–	inactive	inactive	inactive	inactive	inactive	inactive	–
COC(=O)CCC(=O)CNC(=O)[C@H](CC(C)C)NC(=O)Cn1cc(O)c(=O)cc1C	–	–	–	inactive	inactive	inactive	inactive	inactive	inactive	–
COC(=O)CCC(=O)CNC(=O)Cn1cc(O)c(=O)cc1C	–	–	–	inactive	inactive	inactive	inactive	inactive	inactive	–
COC(=O)CCC(=O)CNC(=O)CCn1cc(O)c(=O)cc1CO	–	–	–	inactive	inactive	inactive	inactive	inactive	inactive	–
COC(=O)CCC(=O)CNC(=O)[C@H](Cc1ccccc1)NC(=O)CCCCCn1cc(O)c(=O)cc1C	–	–	–	inactive	inactive	inactive	inactive	inactive	inactive	–
CCCCCCCCn1c(C)cc(=O)c(O)c1COC(=O)CCC(=O)CN.Cl	38.5	48.9	44.2	–	–	–	–	–	–	Drug metabolism [1]: Metabolite_Detected; Drug metabolism [3]: Metabolite_Detected; Drug metabolism [8]: Metabolite_Detected; Drug metabolism [9]: Metabolite_Detected; Activity (HeLa [10]): Active; Drug metabolism [11]: Metabolite_Detected
COC(=O)CCC(=O)CNC(=O)CCCCn1cc(O)c(=O)cc1CO	–	–	–	inactive	inactive	inactive	inactive	inactive	inactive	–
